These results are taken from patent publication US20100028417A1, “USE OF SUBSTITUTED GLYCERIN DERIVATIVES FOR PRODUCING A PHARMACEUTICAL PREPARATION” (priority 2006, published 2010).

SMILES strings stand for the structures.

In series [1] the test system is cytochrome P450. The experiment in a line: in vitro inhibition of cytochrome P450 activity. The class given is biochemical.
For series [2], the system named is cytochrome P450. Briefly: in vivo activity (inhibition of cytochrome P450 activity).

As for `C#CCCCCCCCCC(C)(C)C(=O)O` [2,2-dimethyl-11-dodecinyl acid], in the series with cytochrome P450 [1], the “inhibition of cytochrome P450 activity” value is reported as “comparably high inhibition”. The “in vivo activity compared with 10-undecinyl acid” value in the series with cytochrome P450 [2] is on record as “far superior in vivo”.
Take `C#CCCCCCCCCC(=O)O` [10-undecinyl acid]: the “inhibition of cytochrome P450 activity” value in the series with cytochrome P450 [1] is reported as “comparably high inhibition”.
